Bounds are passed on as bounds.

For 11 compounds, Ki, inhibition and inhibition in vivo results are on record in ChEMBL document CHEMBL1129884, “Hindered rotation congeners of mazapertine: High affinity ligands for the 5-HT1A receptor” (Bioorg Med Chem Lett, 1997).

In test [1] the target is T1, D(3) dopamine receptor (Homo sapiens, UniProt P35462).
Test [2] has as its target T2, Adrenergic receptor alpha-1 (Homo sapiens, UniProt P35348+P25100+P35368).
T2 sequence (P35348 whole entry): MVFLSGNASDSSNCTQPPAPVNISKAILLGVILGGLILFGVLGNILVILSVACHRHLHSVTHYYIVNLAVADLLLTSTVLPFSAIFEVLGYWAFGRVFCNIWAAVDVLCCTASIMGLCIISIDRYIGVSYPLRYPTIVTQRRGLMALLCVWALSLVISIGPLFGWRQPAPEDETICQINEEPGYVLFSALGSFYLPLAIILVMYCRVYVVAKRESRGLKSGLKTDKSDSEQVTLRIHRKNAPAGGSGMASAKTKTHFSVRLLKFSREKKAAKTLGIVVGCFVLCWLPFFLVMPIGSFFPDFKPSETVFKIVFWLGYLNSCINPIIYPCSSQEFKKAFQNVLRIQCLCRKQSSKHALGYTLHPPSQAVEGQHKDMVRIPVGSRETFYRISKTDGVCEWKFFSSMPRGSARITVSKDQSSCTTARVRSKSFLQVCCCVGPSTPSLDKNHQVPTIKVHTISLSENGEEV
T2 sequence (P25100 whole entry): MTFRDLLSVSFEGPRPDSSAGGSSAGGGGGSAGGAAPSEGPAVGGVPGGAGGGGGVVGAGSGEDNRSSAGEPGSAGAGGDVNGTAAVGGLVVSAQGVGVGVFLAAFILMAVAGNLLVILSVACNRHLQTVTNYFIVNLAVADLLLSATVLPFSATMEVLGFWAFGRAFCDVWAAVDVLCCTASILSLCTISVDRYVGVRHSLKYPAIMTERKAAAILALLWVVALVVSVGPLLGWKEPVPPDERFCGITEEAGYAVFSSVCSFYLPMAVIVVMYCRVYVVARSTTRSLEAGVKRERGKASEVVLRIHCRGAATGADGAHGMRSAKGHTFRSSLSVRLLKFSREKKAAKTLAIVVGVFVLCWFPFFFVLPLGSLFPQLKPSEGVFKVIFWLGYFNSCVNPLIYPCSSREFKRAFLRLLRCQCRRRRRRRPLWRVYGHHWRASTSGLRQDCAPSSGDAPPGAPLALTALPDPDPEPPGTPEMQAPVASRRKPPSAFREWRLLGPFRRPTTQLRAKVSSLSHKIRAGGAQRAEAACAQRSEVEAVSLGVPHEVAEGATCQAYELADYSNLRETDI
T2 sequence (P35368 whole entry): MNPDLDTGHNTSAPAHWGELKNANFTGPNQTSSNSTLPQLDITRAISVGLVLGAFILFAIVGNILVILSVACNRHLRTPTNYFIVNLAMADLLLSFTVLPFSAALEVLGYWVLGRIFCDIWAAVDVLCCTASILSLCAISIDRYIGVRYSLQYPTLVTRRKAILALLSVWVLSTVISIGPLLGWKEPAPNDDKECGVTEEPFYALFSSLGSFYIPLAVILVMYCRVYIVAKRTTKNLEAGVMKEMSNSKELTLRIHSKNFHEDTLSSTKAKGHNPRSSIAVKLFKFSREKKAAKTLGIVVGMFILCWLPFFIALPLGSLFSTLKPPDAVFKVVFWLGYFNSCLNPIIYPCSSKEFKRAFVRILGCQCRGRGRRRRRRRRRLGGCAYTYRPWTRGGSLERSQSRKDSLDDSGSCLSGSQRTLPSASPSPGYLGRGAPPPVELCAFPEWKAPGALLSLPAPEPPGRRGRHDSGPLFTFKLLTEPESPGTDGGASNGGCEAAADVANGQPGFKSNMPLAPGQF
The test is described as follows: Compound was measured […] for its binding affinity at Alpha-1 adrenergic receptor using [3H]prazosin as radioligand.

Test [3] addresses D(1A) dopamine receptor (Homo sapiens) (UniProt P21728). The test is described as follows: Compound was measured for its binding affinity at Dopamine receptor D1 at a concentration of 10 uM using [3H]SCH-23390 as radioligand.
For test [4], the target named is T3, 5-hydroxytryptamine receptor 1A (Homo sapiens, UniProt P08908).
T3 sequence (P08908 whole entry): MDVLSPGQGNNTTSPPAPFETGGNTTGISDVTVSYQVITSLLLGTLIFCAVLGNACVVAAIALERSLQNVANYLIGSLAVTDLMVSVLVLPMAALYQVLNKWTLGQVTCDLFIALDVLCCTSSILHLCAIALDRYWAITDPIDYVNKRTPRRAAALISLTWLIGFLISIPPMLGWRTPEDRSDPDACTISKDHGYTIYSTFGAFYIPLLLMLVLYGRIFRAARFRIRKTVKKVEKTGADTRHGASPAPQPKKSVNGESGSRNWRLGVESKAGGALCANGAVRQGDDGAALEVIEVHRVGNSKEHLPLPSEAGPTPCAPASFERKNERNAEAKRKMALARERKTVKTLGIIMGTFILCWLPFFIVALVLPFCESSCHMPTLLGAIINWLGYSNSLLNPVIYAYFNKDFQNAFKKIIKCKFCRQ
The experiment in a line: Compound was measured […] for its binding affinity at 5-hydroxytryptamine 1A receptor using [3H]8-OH-DPAT as radioligand.

Test [5] deals with T1, D(3) dopamine receptor. The experiment in a line: Compound was measured […] for its inhibition of Dopamine receptor D3 at a concentration of 100 nM.
In test [6] the target is 5-hydroxytryptamine receptor 1B (Homo sapiens) (UniProt P28222). The test is described as follows: Compound was measured for its binding affinity at 5-hydroxytryptamine 1B receptor at a concentration of 100 nM using [125I]CYP as radioligand.
Test [7] has as its system Rattus norvegicus. The experiment in a line: Compound was measured for its antipsychotic activity in the rat conditioned avoidance test, at a dose of 15 mg/kg administered perorally. It counts as functional. As to conditions: route oral.
Test [8] addresses T4, 5-hydroxytryptamine receptor 2C (Homo sapiens) (UniProt P28335).
T4 sequence (whole entry): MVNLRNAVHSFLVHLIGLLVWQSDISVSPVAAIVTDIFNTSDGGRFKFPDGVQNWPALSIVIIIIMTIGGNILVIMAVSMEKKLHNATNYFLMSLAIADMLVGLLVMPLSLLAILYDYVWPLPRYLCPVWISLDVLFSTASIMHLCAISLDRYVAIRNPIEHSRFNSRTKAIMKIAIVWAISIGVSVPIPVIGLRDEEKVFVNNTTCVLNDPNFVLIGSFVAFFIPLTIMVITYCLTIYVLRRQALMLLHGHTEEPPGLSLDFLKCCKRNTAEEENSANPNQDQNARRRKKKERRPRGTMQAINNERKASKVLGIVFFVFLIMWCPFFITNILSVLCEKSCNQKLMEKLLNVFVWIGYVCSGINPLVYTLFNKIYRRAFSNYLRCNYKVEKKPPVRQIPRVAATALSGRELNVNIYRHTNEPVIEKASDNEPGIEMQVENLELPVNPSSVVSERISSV
The experiment in a line: Compound was measured for its binding affinity at 5-hydroxytryptamine 1C receptor at a concentration of 100 nM using [3H]mesulergine as radioligand.

Test [9] deals with Serotonin 3 (5-HT3) receptor (Homo sapiens) (UniProt P46098+A5X5Y0+O95264+Q70Z44+Q8WXA8). The experiment in a line: Compound was measured for its binding affinity at 5-hydroxytryptamine 3 receptor at a concentration of 10 uM using [3H]BRL-43694 as radioligand. Format: protein-complex assay.
Test [10] deals with 5-hydroxytryptamine receptor 1D (Homo sapiens) (UniProt P28221). The test is described as follows: Compound was measured for its binding affinity at 5-hydroxytryptamine 1D receptor at a concentration of 10 uM using [3H]5-HT as radioligand.
Test [11] has as its target D(2) dopamine receptor (Homo sapiens, UniProt P14416).
Description: Compound was measured in vivo for its binding affinity at Dopamine receptor D2 using [3H]spiperone as radioligand.
The target in test [12] is Serotonin 2 (5-HT2) receptor (Homo sapiens) (UniProt P41595+P28223+P28335). The experiment in a line: Compound was measured for its binding affinity at 5-hydroxytryptamine 2 receptor at a concentration of 10 uM using [3H]ketanserin as radioligand. Format: protein assay.
The target of test [13] is T3, 5-hydroxytryptamine receptor 1A. The test is described as follows: Binding affinity against 5-hydroxytryptamine 1A receptor.
The test system of test [14] is Rattus norvegicus. The test is described as follows: Compound was measured for its antipsychotic activity in the rat conditioned avoidance test, at a dose of 15 mg/kg compound administered perorally. Format: functional. The conditions noted are these: route oral.
The target in test [15] is 5-hydroxytryptamine receptor 5B (Rattus norvegicus, UniProt P35365). The test is described as follows: Binding affinity against serotonin receptor.
The test system of test [16] is Rattus norvegicus. The test is described as follows: Compound was measured for its antipsychotic activity in the rat conditioned avoidance test at a dose of 15 mg/kg administered perorally. Format: functional. The conditions noted are these: route oral.

Chain of D(2) dopamine receptor (P14416 whole entry): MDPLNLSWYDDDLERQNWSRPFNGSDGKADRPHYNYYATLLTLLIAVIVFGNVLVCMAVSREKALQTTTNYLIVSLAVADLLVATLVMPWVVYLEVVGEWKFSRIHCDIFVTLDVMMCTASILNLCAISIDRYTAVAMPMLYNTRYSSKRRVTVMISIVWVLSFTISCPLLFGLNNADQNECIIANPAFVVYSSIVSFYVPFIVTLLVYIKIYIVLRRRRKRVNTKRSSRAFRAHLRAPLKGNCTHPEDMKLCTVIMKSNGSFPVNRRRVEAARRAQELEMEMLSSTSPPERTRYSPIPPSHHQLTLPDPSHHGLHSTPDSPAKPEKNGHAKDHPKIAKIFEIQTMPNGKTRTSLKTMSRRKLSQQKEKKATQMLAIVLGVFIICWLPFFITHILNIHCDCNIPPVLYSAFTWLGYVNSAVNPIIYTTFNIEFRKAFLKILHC
Chain of 5-hydroxytryptamine receptor 1D (Homo sapiens) (P28221 whole entry): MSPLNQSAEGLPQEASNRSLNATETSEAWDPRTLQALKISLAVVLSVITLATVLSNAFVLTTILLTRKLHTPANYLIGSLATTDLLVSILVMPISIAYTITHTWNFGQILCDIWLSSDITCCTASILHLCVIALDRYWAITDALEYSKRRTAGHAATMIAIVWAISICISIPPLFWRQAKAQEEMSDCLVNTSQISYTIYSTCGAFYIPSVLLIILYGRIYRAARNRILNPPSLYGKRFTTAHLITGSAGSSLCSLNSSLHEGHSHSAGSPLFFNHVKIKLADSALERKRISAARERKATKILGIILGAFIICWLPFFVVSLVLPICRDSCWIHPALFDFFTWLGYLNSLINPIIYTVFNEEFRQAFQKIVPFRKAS
T1 sequence (P35462 whole entry): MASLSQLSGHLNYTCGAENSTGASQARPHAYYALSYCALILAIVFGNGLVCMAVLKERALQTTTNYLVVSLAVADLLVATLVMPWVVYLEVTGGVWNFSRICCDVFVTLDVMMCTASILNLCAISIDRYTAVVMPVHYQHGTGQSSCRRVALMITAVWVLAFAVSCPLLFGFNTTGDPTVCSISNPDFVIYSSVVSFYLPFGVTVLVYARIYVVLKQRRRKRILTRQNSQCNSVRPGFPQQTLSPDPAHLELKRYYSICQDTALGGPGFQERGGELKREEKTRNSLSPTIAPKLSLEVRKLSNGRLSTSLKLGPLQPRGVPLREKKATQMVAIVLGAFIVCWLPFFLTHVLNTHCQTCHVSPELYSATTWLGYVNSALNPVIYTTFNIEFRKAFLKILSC
Chain of Serotonin 2 (5-HT2) receptor (Homo sapiens) (P28223 whole entry, looked up, one chain of several): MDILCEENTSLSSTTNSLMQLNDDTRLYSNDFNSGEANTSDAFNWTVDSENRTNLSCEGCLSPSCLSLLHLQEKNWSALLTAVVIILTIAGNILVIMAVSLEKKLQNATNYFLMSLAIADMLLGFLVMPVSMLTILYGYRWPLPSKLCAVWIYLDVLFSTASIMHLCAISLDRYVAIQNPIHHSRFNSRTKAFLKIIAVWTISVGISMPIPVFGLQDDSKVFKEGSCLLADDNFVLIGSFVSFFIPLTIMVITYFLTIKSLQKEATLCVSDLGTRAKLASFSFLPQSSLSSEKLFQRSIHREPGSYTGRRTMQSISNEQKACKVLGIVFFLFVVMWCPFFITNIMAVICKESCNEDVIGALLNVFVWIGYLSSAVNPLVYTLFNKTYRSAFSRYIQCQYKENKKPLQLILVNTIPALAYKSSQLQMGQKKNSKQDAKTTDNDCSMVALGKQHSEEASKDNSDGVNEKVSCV
Chain of Serotonin 2 (5-HT2) receptor (Homo sapiens) (P41595 whole entry, looked up, one chain of several): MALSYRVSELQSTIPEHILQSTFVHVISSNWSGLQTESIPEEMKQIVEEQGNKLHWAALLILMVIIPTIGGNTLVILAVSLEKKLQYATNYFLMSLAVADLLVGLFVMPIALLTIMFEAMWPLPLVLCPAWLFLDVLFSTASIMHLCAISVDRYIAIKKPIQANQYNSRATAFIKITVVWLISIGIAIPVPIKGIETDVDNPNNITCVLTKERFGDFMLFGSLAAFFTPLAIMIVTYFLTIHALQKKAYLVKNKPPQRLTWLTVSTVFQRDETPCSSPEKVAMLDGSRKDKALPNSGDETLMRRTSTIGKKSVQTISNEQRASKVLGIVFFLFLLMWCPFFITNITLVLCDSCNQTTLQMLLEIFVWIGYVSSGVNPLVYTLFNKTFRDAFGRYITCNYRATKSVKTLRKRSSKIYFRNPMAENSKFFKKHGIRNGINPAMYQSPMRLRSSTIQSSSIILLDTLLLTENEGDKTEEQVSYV
Chain of 5-hydroxytryptamine receptor 1B (Homo sapiens) (P28222 whole entry): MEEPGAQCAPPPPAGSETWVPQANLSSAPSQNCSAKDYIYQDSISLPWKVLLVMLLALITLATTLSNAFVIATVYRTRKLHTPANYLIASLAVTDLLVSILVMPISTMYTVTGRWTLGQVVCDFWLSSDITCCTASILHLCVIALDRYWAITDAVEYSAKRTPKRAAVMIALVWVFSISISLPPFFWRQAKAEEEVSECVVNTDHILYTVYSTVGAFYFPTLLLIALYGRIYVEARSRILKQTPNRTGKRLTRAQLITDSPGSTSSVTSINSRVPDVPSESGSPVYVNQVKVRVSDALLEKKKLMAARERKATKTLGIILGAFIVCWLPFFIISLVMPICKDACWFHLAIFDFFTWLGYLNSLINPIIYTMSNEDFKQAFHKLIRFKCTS
Chain of D(1A) dopamine receptor (Homo sapiens) (P21728 whole entry): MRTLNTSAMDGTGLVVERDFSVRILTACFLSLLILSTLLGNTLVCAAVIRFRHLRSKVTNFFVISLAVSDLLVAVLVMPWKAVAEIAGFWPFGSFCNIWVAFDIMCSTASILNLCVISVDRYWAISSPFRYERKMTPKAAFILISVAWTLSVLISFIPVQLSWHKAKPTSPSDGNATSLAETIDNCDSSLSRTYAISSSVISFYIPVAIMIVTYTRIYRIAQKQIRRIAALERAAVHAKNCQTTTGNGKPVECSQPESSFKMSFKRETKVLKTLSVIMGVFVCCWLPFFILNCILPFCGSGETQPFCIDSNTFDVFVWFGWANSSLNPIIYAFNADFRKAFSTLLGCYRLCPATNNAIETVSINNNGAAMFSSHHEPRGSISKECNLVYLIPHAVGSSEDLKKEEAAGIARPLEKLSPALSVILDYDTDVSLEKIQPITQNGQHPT
Chain of 5-hydroxytryptamine receptor 5B (P35365 whole entry): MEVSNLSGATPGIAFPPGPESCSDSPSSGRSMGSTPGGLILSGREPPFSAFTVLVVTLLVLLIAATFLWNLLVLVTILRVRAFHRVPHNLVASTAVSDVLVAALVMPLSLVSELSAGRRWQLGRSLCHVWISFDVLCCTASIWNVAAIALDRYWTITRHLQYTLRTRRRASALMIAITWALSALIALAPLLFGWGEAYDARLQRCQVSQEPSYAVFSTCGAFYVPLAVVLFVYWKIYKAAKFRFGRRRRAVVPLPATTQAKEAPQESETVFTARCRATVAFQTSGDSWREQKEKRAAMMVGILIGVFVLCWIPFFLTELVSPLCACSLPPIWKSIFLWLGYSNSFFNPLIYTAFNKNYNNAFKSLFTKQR

As to `CC(C)Oc1ccccc1N1CCN(Cc2cccc(C(=O)N3CCCCC3)c2)CC1` [MAZAPERTINE], the affinity in test [1], expressed as Ki, was 1.8 nM.
In the case of `O=C(c1cccc(CN2CCc3c([nH]c4ccccc34)C2)c1)N1CCCCC1`, the values for the Ki in test [2], in test [4] and in test [11] were 36 nM, 13 nM and 374 nM, respectively. Further, the inhibition in test [3] stood at 23.7%; in test [5], 27%; in [6], 1%; in test [8], 5.5%; in [9], 13.6%; in test [10], 74.7%. Moreover, the inhibition in [12] is 18%. The inhibition in vivo at 15 mg/kg in test [7] was -74%.
As for `CCCCCCN1CCc2c([nH]c3ccccc23)C1`, the Ki in [13] came out at 79 nM.
On to `COc1cccc2c1C1CCN(CCCN3C(=O)c4ccccc4S3(=O)=O)C[C@H]1C2` (stereo partly drawn), for which the Ki in test [13] came to 0.89 nM.
`O=C1c2ccccc2C(=O)N1CCCCN1CCn2c(cc3ccccc32)C1` displayed a Ki in test [13] of 74 nM.
On to `O=C(c1cccc(CN2CCc3c([nH]c4ccccc34)C2)c1)N1CCc2ccccc21`, for which the Ki is 2.9 nM in test [2], 9.2 nM in test [4] and above 1000 nM in [11]. Besides, the inhibition came out at 40.8% in [3]; 56% in [5]; 8.8% in test [6]; 8.7% in test [8]; 22.6% in test [9]; 86.1% in test [10]. The inhibition in [12] was 29.9%. The inhibition in vivo at 15 mg/kg in test [7] was -37%.
With `CCCN1CCC[C@@H]2c3cc(O)ccc3CC[C@H]21`, the Ki in test [13] stood at 3.87 nM.
For `CC(C)Oc1ccccc1N1CCN(Cc2cccc(C(=O)N3CCc4ccccc43)c2)CC1`, in test [14], the inhibition in vivo at 15 mg/kg was -96%. Further, the values for the Ki in [2] and in test [4] were 1.7 nM and 3.4 nM, respectively.
For the compound `FC(F)(F)c1ccc2c(c1)N1CCNCC1CC2` (stereo not drawn), the Ki in test [15] stood at 67 nM.
`O=C(c1cccc(CN2CCN3c4ccccc4OCC3C2)c1)N1CCc2ccccc21` (stereo not drawn): the figures for the Ki in [2], in test [4] and in test [11] were above 1000 nM, 6.5 nM and above 1000 nM, respectively. Also, the inhibition is 42.4% in [3]; 54% in test [5]; 8.1% in test [6]; -2.8% in test [8]; 12.5% in test [9]; 58.9% in test [10]. In addition, the inhibition in [12] was determined as 7.5%. Moreover, the inhibition in vivo at 15 mg/kg in test [7] is -20%.
As to `O=C(c1cccc(CN2CCN3c4ccccc4OCC3C2)c1)N1CCCCC1` (stereo not drawn), the inhibition in vivo at 15 mg/kg in test [16] was -49%. The results for the Ki in test [2], in [4] and in [11] were 200 nM, 12 nM and above 1000 nM, respectively. Further, the inhibition in test [3] was 14.7%; in [5] it was 64%; in test [6] it was 3.4%; in test [8] it was 5.6%; in [9], 5.1%; in test [10] it was 63.8%. For the same compound, the inhibition in test [12] is 7.5%.
